Source: US20240358829A1, “Lymphocyte Population and Methods for Producing Same” (AVM Biotechnology, LLC, priority 2021, published 2024)
“And” between values parts separate entries of the source, which are not always exact repeats. Equal values may be shown once.

Tested on: CD56+γδTCR+iTCR+ cells
Experiment: AVM0703 R/R NHL clinical trial, whole blood flow cytometry
Assay type: in vivo, human
Protocol: FIG. 15. 101-001 size (FSC) and complexity (SSC) scattergram of AVM_NKT cells. […] Blood was stained with panel antibodies based for 15 minutes in the dark at Room Temperature. RBC lysis was performed by addition of 1 mL of 1×BD FACS Lysing Solution (BD Bioscience), diluted with MilliQ water, for 10 minutes in the dark at Room Temperature. Samples were washed with 2 mL 1×DPBS CMF (Gibco) and resuspended in 300 μL of 1×DPBS CMF before 5 μL of 7AAD (Biolegend) was added to each sample for live/dead cell determination and incubated for 5 minutes in the dark at Room Temperature. 250 μL of sample were taken up for acquisition on Macsquant 16 Flow Cytometer (Miltenyi, Serial #40150). Live white blood cells were gated for CD56+ cells co-expressing gamma delta TCR and the invariant TCR and labelled red in the forward versus side scattergram. Red-labelled cells fall within the forward versus side scattergrams where large granular cells such as neutrophils and large granular lymphocytes are known to fall.
For characterisation of the induced/mobilized population of NKT-like cells (AVM-NKT) in humans, whole blood from human subjects was drawn in K2 EDTA Vacutainer tube (367862, BD Biosciences, NJ) and shipped to AVM Biotechnology at room temperature. 100 μl of whole blood was stained with the following antibodies: CD45 AF700 (2D1), CD16 APC (3G8), INKT PECy7 (6B11), CD8 PE (SK1), CD14 FITC (M5E2), CD56 BV650 (5.1H11), γδTCR BV510 (B1), CD19 BV421 (HIB19), NKp44 APC (P44-8) (all from Biolegend, San Diego, CA) and CD3 APCVio770 (BW264/56), (Miltenyi Biotec, San Jose, CA), 7-AAD, (Biolegend, San Diego CA) was included to distinguish the live and dead cells.

[1] = patient 101-001, 6 mg/kg, 1 hour post-infusion
[2] = patient 101-001, 6 mg/kg, Day 14
[3] = patient 103-002, 6 mg/kg, 1 hour post-infusion
[4] = patient 103-002, 6 mg/kg, Day 3
[5] = patient 103-002, 6 mg/kg, Day 14
[6] = patient 103-005, 9 mg/kg, 1 hour post-infusion
[7] = patient 103-005, 9 mg/kg, Day 3
[8] = patient 103-005, 9 mg/kg, Day 14
[9] = patient 103-006, 9 mg/kg, day 3
[10] = patient 103-006, 9 mg/kg, day 14
[11] = patient 108-001, 1st 9 mg/kg infusion, 1 hour

Structure (SMILES): C[C@@H]1C[C@H]2[C@@H]3CCC4=CC(=O)C=C[C@]4(C)[C@@]3(F)[C@@H](O)C[C@]2(C)[C@@]1(O)C(=O)COP(=O)(O)O [AVM0703, dexamethasone sodium phosphate]
- time to mobilization of bi-specific gamma delta TCR+ invariant TCR+ cell into the blood (R/R NHL clinical trial patients, dosing between 6 mg/kg and 18 mg/kg): 30 to 60 min
- CD56+gdTCR+ inv TCR+ cells induced (patient 101-001, 6 mg/kg): YES
- CD3 (as % of CD56+ γδTCR+ iTCR+ cells) [1]: 39%
- CD8med (as % of CD56+ γδTCR+ iTCR+ cells) [1]: 86%
- CD19+ (as % of CD56+ γδTCR+ iTCR+ cells) [1]: 54%
- CD45 (as % of CD56+ γδTCR+ iTCR+ cells) [1]: 99%
- CD56+ γδTCR+ iTCR+ % of total WBCs [1]: 0.24%
- CD56+ γδTCR+ iTCR+ cells/uL [1]: 11.4 cells/uL
- TCRαβ (as % of CD56+ γδTCR+ iTCR+ cells) [1]: 100%
- CD3 (as % of CD56+ γδTCR+ iTCR+ cells) [2]: 99%
- CD8med (as % of CD56+ γδTCR+ iTCR+ cells) [2]: 94%
- CD19+ (as % of CD56+ γδTCR+ iTCR+ cells) [2]: 22%
- CD45 (as % of CD56+ γδTCR+ iTCR+ cells) [2]: 99.5%
- CD56+ γδTCR+ iTCR+ % of total WBCs [2]: 1.74%
- CD56+ γδTCR+ iTCR+ cells/uL [2]: 78.7 cells/uL and 79 cells/uL
- TCRαβ (as % of CD56+ γδTCR+ iTCR+ cells) [2]: 99%
- CD56+γδTCR+ cells, % of all CD45+ cells (patient 101-001, one hour after 6 mg/kg infusion (pre-infusion 1.6%)): 3.48%
- CD56+γδTCR+ cells/uL blood (patient 101-001, one hour after 6 mg/kg infusion (pre-infusion 76)): 165 cells/uL blood
- % of CD56+γδTCR+ cells co-expressing invTCR (patient 103-002, 6 mg/kg): about 10%
- CD56+gdTCR+ inv TCR+ cells induced (patient 103-002, 6 mg/kg): YES
- CD3 (as % of CD56+ γδTCR+ iTCR+ cells) [3]: 4.2%
- CD8hi (as % of CD56+ γδTCR+ iTCR+ cells) [3]: 2.6%
- CD8med (as % of CD56+ γδTCR+ iTCR+ cells) [3]: 2.9%
- CD19+ (as % of CD56+ γδTCR+ iTCR+ cells) [3]: 0.78%
- CD45 (as % of CD56+ γδTCR+ iTCR+ cells) [3]: 92%
- CD56+ γδTCR+ iTCR+ % of total WBCs [3]: 0.83%
- CD56+ γδTCR+ iTCR+ cells/uL [3]: 65.6 cells/uL
- TCRαβ (as % of CD56+ γδTCR+ iTCR+ cells) [3]: 79%
- CD56+γδTCR+ cells, % of all CD45+ cells (patient 103-002, 6 mg/kg, 1 hour post-infusion (pre-infusion 9.3%)): 6.54%
- CD56+γδTCR+ cells/uL blood (patient 103-002, 6 mg/kg, 1 hour post-infusion (pre-infusion 735)): 517 cells/uL blood
- CD3 (as % of CD56+ γδTCR+ iTCR+ cells) [4]: 67%
- CD8hi (as % of CD56+ γδTCR+ iTCR+ cells) [4]: 2%
- CD8med (as % of CD56+ γδTCR+ iTCR+ cells) [4]: 30%
- CD19+ (as % of CD56+ γδTCR+ iTCR+ cells) [4]: 4% and 4.2%
- CD45 (as % of CD56+ γδTCR+ iTCR+ cells) [4]: 17%
- CD56+ γδTCR+ iTCR+ % of total WBCs [4]: 1.99%
- CD56+ γδTCR+ iTCR+ cells/uL [4]: 366 cells/uL and 366.2 cells/uL
- TCRαβ (as % of CD56+ γδTCR+ iTCR+ cells) [4]: 54%
- CD3 (as % of CD56+ γδTCR+ iTCR+ cells) [5]: 31.5%
- CD8hi (as % of CD56+ γδTCR+ iTCR+ cells) [5]: 2.4%
- CD8med (as % of CD56+ γδTCR+ iTCR+ cells) [5]: 70%
- CD19+ (as % of CD56+ γδTCR+ iTCR+ cells) [5]: 1.76%
- CD45 (as % of CD56+ γδTCR+ iTCR+ cells) [5]: 98%
- CD56+ γδTCR+ iTCR+ % of total WBCs [5]: 0.42%
- CD56+ γδTCR+ iTCR+ cells/uL [5]: 27 cells/uL
- TCRαβ (as % of CD56+ γδTCR+ iTCR+ cells) [5]: 78%
- CD56+gdTCR+ inv TCR+ cells induced (patient 103-004, 6 mg/kg): YES
- CD56+gdTCR+ inv TCR+ cells induced (patient 103-005, 9 mg/kg): YES
- CD3 (as % of CD56+ γδTCR+ iTCR+ cells) [6]: 6%
- CD8med (as % of CD56+ γδTCR+ iTCR+ cells) [6]: 17%
- CD14+ (as % of CD56+ γδTCR+ iTCR+ cells) [6]: 76%
- CD16 (as % of CD56+ γδTCR+ iTCR+ cells) [6]: 66%
- CD19+ (as % of CD56+ γδTCR+ iTCR+ cells) [6]: 33.9%
- CD45 (as % of CD56+ γδTCR+ iTCR+ cells) [6]: 99%
- CD56+ γδTCR+ iTCR+ % of total WBCs [6]: 0.87%
- CD56+ γδTCR+ iTCR+ cells/uL [6]: 21.8 cells/uL
- CD3 (as % of CD56+ γδTCR+ iTCR+ cells) [7]: 10%
- CD8med (as % of CD56+ γδTCR+ iTCR+ cells) [7]: 15%
- CD14+ (as % of CD56+ γδTCR+ iTCR+ cells) [7]: 8%
- CD16 (as % of CD56+ γδTCR+ iTCR+ cells) [7]: 84%
- CD19+ (as % of CD56+ γδTCR+ iTCR+ cells) [7]: 28%
- CD45 (as % of CD56+ γδTCR+ iTCR+ cells) [7]: 63%
- CD56+ γδTCR+ iTCR+ % of total WBCs [7]: 2.67%
- CD56+ γδTCR+ iTCR+ cells/uL [7]: 82.8 cells/uL
- CD3 (as % of CD56+ γδTCR+ iTCR+ cells) [8]: 66%
- CD8med (as % of CD56+ γδTCR+ iTCR+ cells) [8]: 16%
- CD14+ (as % of CD56+ γδTCR+ iTCR+ cells) [8]: 81%
- CD16 (as % of CD56+ γδTCR+ iTCR+ cells) [8]: 37%
- CD19+ (as % of CD56+ γδTCR+ iTCR+ cells) [8]: 99%
- CD45 (as % of CD56+ γδTCR+ iTCR+ cells) [8]: 84%
- CD56+ γδTCR+ iTCR+ % of total WBCs [8]: 0.66%
- CD56+ γδTCR+ iTCR+ cells/uL [8]: 22.4 cells/uL
- CD56+γδTCR+ cells, % of CD45+ cells (patient 103-005, one hour after 9 mg/kg (baseline 2.7%)): 0.21%
- % of CD56+γδTCR+ cells expressing CD16 [9]: 92%
- % of CD56+γδTCR+ cells expressing NKp44 [9]: 19%
- CD56+γδTCR+ cells, % of all WBCs [9]: 2.2%
- ICAM3 MFI of CD56+γδTCR+ cells [9]: 240
- % of CD56+γδTCR+ cells expressing CD16 [10]: 92%
- % of CD56+γδTCR+ cells expressing NKp44 [10]: 19%
- CD56+γδTCR+ cells, % of all WBCs [10]: 2.2% and 0.11%
- ICAM3 MFI of CD56+γδTCR+ cells [10]: 240
- CD56+γδTCR+ cells, number or expression in the blood (patient 103-006, one hour after 9 mg/kg): had not changed
- % of CD56+γδTCR+ cells NKp44+ (patient 103-006, one hour after 9 mg/kg (baseline 42%)): 25%
- ICAM3 MFI of CD56+γδTCR+ cells (patient 103-006, one hour after 9 mg/kg (baseline 294)): no change
- CD56+gdTCR+ inv TCR+ cells induced (patient 108-001, 9 mg/kg): YES
- CD3 (as % of CD56+ γδTCR+ iTCR+ cells) [11]: 4%
- CD8hi (as % of CD56+ γδTCR+ iTCR+ cells) [11]: 1%
- CD8med (as % of CD56+ γδTCR+ iTCR+ cells) [11]: 11%
- CD14+ (as % of CD56+ γδTCR+ iTCR+ cells) [11]: 35%
- CD16 (as % of CD56+ γδTCR+ iTCR+ cells) [11]: 90%
- CD19+ (as % of CD56+ γδTCR+ iTCR+ cells) [11]: 11.3%
